Key:
CYP3A4 = CYP3A4 (Homo sapiens, UniProt P08684); assay: CYP3A4 activity (midazolam 1′-hydroxylation) in human liver microsomes; details: Dixon and Lineweaver–Burk plots
Protocol: (§1) For each enzyme assay, the preliminary experiments to determine Michaelis constant (Km) and limiting velocity (Vmax) were performed to calculate the time of incubation (the specified time for which the reaction is still linear) and the values of substrate concentration (in the range corresponding to the value of Km).
(§2) The reaction mixtures were buffered by 0.1 M potassium phosphate buffer (pH 7.4) and contained a NADPH-generating system consisting of the isocitrate dehydrogenase (6 U/mL), NADP^+ (0.5 mM), isocitric acid (4 mM), and MgSO4 (5 mM). The final concentration levels of complexes were obtained by diluting a 10 mM solution with dimethyl sulfoxide (DMSO). It is known that DMSO can in some cases inhibit P450; the following measures were thus applied: (a) control samples containing organic solvent without the tested compounds were prepared and used as references; (b) DMSO levels were maintained below 0.1% to minimise the inhibition. Inhibition experiments were performed using five concentration levels of the tested compounds in the range of 10–100 µM. The maximum concentration was chosen so that in the case of inhibition, it would be possible to determine the inhibitory effect of the complexes and characterise them by determining the IC50 value. Additionally, an inhibitor-free control was used as a reference. Incubations were executed in two independent batches, and the samples were prepared and measured in triplicate at 37 °C. Analyses of the metabolites formed from the specific substrates were performed by HPLC using the Prominence system (Shimadzu, Kyoto, Japan) equipped with a LiChroCART 250-4 LiChrospher 100 RP-18 column, Chromolith® HighResolution RP-18 end-capped column (Merck, Darmstadt, Germany), or Kinetex Biphenyl column (Phenomenex, Torrace, CA, USA).
(§3) The apparent Ki values were determined by additional measurements using substrate concentrations corresponding to 1/2 Km, Km, 2 Km, and 4 Km in the case of inhibition. The type of model was selected on the basis of the Lineweaver–Burk and Dixon plots. The values of IC50 were obtained by analysing the plot of the percentage of activity remaining after inhibition versus the logarithm of the inhibitor concentration using the GraphPad Prism 6 software (La Jolla, CA, USA).

CYP3A4/5 = CYP3A4/5 activity (testosterone 6β-hydroxylation) in human liver microsomes
Protocol: For each enzyme assay, the preliminary experiments to determine Michaelis constant (Km) and limiting velocity (Vmax) were performed to calculate the time of incubation (the specified time for which the reaction is still linear) and the values of substrate concentration (in the range corresponding to the value of Km). The amount of human liver microsomes (HLM; expressed as the amount of CYP in pmol and the concentration of HLM protein in mg/mL in the reaction vessel) in the reaction was determined using previously established protocols [40].
The reaction mixtures were buffered by 0.1 M potassium phosphate buffer (pH 7.4) and contained a NADPH-generating system consisting of the isocitrate dehydrogenase (6 U/mL), NADP^+ (0.5 mM), isocitric acid (4 mM), and MgSO4 (5 mM). The final concentration levels of complexes were obtained by diluting a 10 mM solution with dimethyl sulfoxide (DMSO). It is known that DMSO can in some cases inhibit P450; the following measures were thus applied: (a) control samples containing organic solvent without the tested compounds were prepared and used as references; (b) DMSO levels were maintained below 0.1% to minimise the inhibition. Inhibition experiments were performed using five concentration levels of the tested compounds in the range of 10–100 µM. The maximum concentration was chosen so that in the case of inhibition, it would be possible to determine the inhibitory effect of the complexes and characterise them by determining the IC50 value. Additionally, an inhibitor-free control was used as a reference. Incubations were executed in two independent batches, and the samples were prepared and measured in triplicate at 37 °C.
The type of model was selected on the basis of the Lineweaver–Burk and Dixon plots. The values of IC50 were obtained by analysing the plot of the percentage of activity remaining after inhibition versus the logarithm of the inhibitor concentration using the GraphPad Prism 6 software (La Jolla, CA, USA).

[1] = tested on: human liver microsomal cytochrome P450s; assay: Difference spectra (UV-visible spectral titration) with human liver microsomes; details: read-out: Ks (spectral binding constant); spectral differences at 386 nm, CYP 1 µM, pH 7.4, room temperature
Protocol: (§4) The cuvette contained microsomes diluted to final concentration of CYP 1 µM in 50 mM potassium phosphate buffer (pH 7.4). The tested compounds were dissolved in the same buffer, and their concentrations in the experiments ranged from 0.002 to 33.310 µM. The UV-Visible spectra were recorded at room temperature by repetitive scanning between 300 and 700 nm using Varian 500 UV/VIS spectrophotometer (Agilent Technologies, Wakefield, MA, USA). Changes of absorbance in the range of the Soret’s region (380–450 nm) were plotted against the concentration of the studied compounds. Data were analysed using GraphPad Prism 6 software (La Jolla, CA, USA).

cytochrome P450 = tested on: cytochrome P450; parameters: method as in PMID 26911729; details: ref [50]; cited from earlier work
CYP2C19 = target: T1, CYP2C19 (Homo sapiens, UniProt P33261); assay: CYP2C19 activity ((S)-mephenytoin 4′-hydroxylation) in human liver microsomes; format: biochemical; details: free ligand, up to 100 μM
T1 construct: Cryopreserved pooled human liver microsomes were obtained from Xenotech; tissue Xenotech (Lenexa, KS, USA); host or cells: pooled human liver microsomes
Protocol: as §1, §2, §3

[2] = tested on: human liver microsomal cytochrome P450s
Protocol: as §4

Sequence of CYP3A4 (P08684 2-503): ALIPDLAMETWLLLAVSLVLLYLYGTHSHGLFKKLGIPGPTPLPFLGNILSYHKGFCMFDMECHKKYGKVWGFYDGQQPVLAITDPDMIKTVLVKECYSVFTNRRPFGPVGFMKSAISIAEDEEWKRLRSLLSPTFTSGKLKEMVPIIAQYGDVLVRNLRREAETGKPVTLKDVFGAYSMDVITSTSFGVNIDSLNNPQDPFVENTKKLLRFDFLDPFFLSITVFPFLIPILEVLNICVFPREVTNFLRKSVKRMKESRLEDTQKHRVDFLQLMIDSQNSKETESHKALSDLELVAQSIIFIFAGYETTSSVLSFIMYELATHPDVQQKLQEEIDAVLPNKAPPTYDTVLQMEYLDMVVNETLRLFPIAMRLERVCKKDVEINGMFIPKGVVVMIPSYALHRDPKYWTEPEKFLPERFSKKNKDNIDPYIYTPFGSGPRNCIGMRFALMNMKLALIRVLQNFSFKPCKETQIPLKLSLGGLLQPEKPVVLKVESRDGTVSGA
T1 sequence (P33261 whole entry): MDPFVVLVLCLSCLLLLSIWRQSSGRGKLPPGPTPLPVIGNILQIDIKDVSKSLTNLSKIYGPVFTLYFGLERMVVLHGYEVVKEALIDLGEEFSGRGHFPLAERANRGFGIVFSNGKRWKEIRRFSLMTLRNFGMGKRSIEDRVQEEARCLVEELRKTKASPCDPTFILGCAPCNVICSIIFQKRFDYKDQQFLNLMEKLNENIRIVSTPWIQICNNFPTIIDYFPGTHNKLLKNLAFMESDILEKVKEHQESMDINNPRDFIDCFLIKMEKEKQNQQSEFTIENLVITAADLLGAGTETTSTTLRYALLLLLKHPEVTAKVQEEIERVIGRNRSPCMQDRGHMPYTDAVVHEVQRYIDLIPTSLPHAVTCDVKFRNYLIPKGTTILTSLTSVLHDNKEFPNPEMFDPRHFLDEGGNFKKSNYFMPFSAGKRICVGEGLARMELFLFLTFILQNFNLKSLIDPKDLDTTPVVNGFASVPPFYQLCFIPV

## O.O.O.O=[N+]([O-])[O-].O=[N+]([O-])[O-].[Cu+2] [copper(II) nitrate trihydrate, reference compound]
CYP3A4
  Type of inhibition, CYP3A4 (midazolam 1′-hydroxylation): non-competitive
CYP3A4; read-out: Ki CYP3A4 (midazolam 1′-hydroxylation assay), substrate ½ Km to 4 Km
  Ki: 8.25 ± 1.64 µM
CYP3A4/5; read-out: Ki CYP3A4/5 (testosterone 6β-hydroxylation assay), Dixon and Lineweaver–Burk plots, substrate ½ Km to 4 Km
  Ki: 1.56 ± 0.25 µM
[1]
  Kd: 9.81 ± 0.6 µM

## CC(=O)CC(C)=O.Cc1ccnc2c1ccc1c(C)ccnc12.O=[N+]([O-])[O-].O=[N+]([O-])[O-].[Cu+2] [[Cu(acac)(4,7-dimethyl-1,10-phenanthroline)(H2O)](NO3)2]
Cytochrome P450
  IC50: ~10 µM

## O=c1c(O)c(-c2ccccc2)[nH]c2ccccc12 [Hqui, 2-phenyl-3-hydroxy-1H-quinolin-4-one, reference compound]
CYP2C19
  Decrease in CYP2C19 activity: 66%
[2]
  Changes in difference spectra on interaction with microsomal CYPs: no significant changes
CYP3A4/5; at 100 μM
  CYP3A4/5 activity remaining (testosterone 6β-hydroxylation), % of basal activity: ca. 60%

## Cc1cc2cccnc2c2ncccc12 [mphen, 5-methyl-1,10-phenanthroline]
[2]
  Changes in difference spectra on interaction with microsomal CYPs: no significant changes
